The results in this text go back to patent US8084602B2, “Porphyrin derivatives and their use in photodynamic therapy” (Destiny Pharma Limited, priority 2002, dated 2011).

One data set relates to E. coli ATCC 25922. Briefly: Cell survival (colony forming unit) with or without illumination. Format: cell-based, Escherichia coli. Conditions: for Log reduction: E. coli. How it is done:
(§1) The toxic effects of exemplary compounds of the invention against two bacterial strains, the Gram negative bacterium Escherichia coli (strain ATCC 25922) and the Gram positive bacterium Staphylococcus aureus (methicillin-resistant strain ATTC BAA-44), were evaluated by measuring the extent of growth inhibition (bacteriostatic effect) and growth […] (cytocidal effect) in the dark and upon light exposure. Initial compound screening was undertaken using white light [390-740 nm] (150 mW/cm^2) for various timepoints of a concentration of 3 μM (see Table 1). Further experiments were undertaken on those compounds identified from this initial screen using a light source emitting light at a wavelength between 417-420 nm at 15.2 mW/cm^2, 13.68 J/cm^2 (Waldmann Eclairage SA, France) (see Table 20.
(§2) For the further investigation of the exemplary compounds (Table 2), the following protocol was adopted: • (i) Bacteria (S. aureus BAA-44 and E. coli 25922) were grown in brain heart infusion (BHI) broth until they reached the stationary phase of growth. • (ii) The cells were harvested by centrifugation (3000 g for 15 min) with a table centrifuge, washed with 10 mM PBS at pH 7.4 containing 2.7 mM KCl and 0.14 M NaCl and suspended in PBS at an optical density of 0.7 at 650 nm corresponding to 10^8-10^9 cells/ml. • (iii) The bacteria, at the desired cell density (˜10^8 cells/ml) were incubated for 5 min in the dark with various concentrations of the exemplary compounds. • (iv) At the end of the incubation period the cells were washed three times with PBS, suspended in PBS, transferred into a 96-well microtitre plate (200 μl/well) and illuminated for 15 min with the Waldmann light source (15.2 mW/cm^2; 13.7 J/cm^2). The cells were illuminated from the bottom of the plate laying it on the glass cover of the lamp. • (v) After illumination, cell survival was determined by plating serially diluted aliquots of treated and untreated (i.e. no exemplary compound or light present) cells onto brain heart agar (BHA) and counting the number of colonies after 18-24 h incubation at 37° C.
(§3) the above colony forming unit (CFU) protocol was also used to investigate the photodynamic activity of very low concentrations of the compounds of the invention.

Data set [1] has as its system S. aureus ATCC BAA-44 (a methicillin resistant S. aureus). The description is as above. It counts as cell-based, Staphylococcus aureus. Conditions: for dark toxicity against BAA-44: absence of light, at the concentrations tested (FIG. 4); for Log reduction: S. aureus. How it is done: as §1, §2, §3
For data set [2], the system named is normal human dermal fibroblasts (NHDF). Description: Toxicity against human skin cells, MTT-assay. Format: cell-based. How it is done: (§4) Test compounds were screened for toxicity against cultured human skin cells using normal human epidermal keratinocytes (NHEK) and normal human dermal fibroblasts (NHDF), purchased from CellSystems Biotechnologie GmbH, Germany.
(§5) The NHEK and NHDF cells were used between passages 3 and 10. The cells were seeded with 7.5 and/or 15×10^4 cells/well (microtitreplate) and allowed to attach overnight in an incubator (37° C., 5% CO2). […]
(§6) Phototoxicity was tested by standard MTT-assay (Mossman et al., 1983, Immunological Methods 65:55-63). MTT is an indicator of metabolically active cells. Dependent on enzyme activity in mitochondria a colour reaction can be visualised, which can be measured by ELISA reader (540 nm). The cell viability data were normalised, i.e. the OD values of cells after PDT without photosensitisers were adjusted to one. Each experiment was repeated three times.
A general note: Tetrazolium assays rely on reduction of a dye to a coloured formazan, in cell work by metabolically active cells.

Data set [3] has as its system normal human epidermal keratinocytes (NHEK). Description: Toxicity against human skin cells, MTT-assay. It counts as cell-based. How it is done: as §4, §5, §6
The subject of data set [4] is bacterial cells compared to human skin cells. Briefly: Selectivity for bacteria compared to human skin cells. Format: cell-based. Conditions: at a dose of 0.01 μM. On the procedure:
as §2, §4
The NHEK and NHDF cells were used between passages 3 and 10. The cells were seeded with 7.5 and/or 15×10^4 cells/well (microtitreplate) and allowed to attach overnight in an incubator (37° C., 5% CO2). After incubation with different concentrations of the selected photosensitisers, the cells were illuminated for fifteen minutes (Light source 236, Waldmann; 15.2 mW/cm^2, 13.7 J/cm^2) and then incubated for 24 hours in the dark.
as §6

Data set [5] in a line: Chemical stability, qualitative stress tests (HPLC, LC-MS). It counts as physicochemical. Conditions: solid, aqueous solution and PBS; 7 days each at 50° C., 70° C., 90° C. How it is done: The following HPLC methodology was established for the analysis of the exemplary compounds of the invention.
The method involves detection by UV at a wavelength of 420 nm, which is very specific for these compounds. In order to monitor impurities not related to the porphyrin structure (and therefore not absorbing at 420 nm) UV spectra of the whole chromatograms were also recorded between 200 nm and 700 nm by DAD (diode array detector) in certain experiments.
Qualitative stress tests were undertaken on the exemplary compounds of the invention. Analysis was undertaken by HPLC & LC-MS. The compounds were stress tested in solid form, in an aqueous solution and a solution made up in phosphate-buffered saline buffer. The samples were initially incubated for 7 days at 50° C. and a sample removed for testing. The samples were then incubated for a further 7 days at 70° C., samples removed as before and the samples incubated further for 7 days at 90° C. HPLC analysis of freshly prepared solutions was undertaken and compared to the samples after 7, 14 and 21 days incubation. A visual comparison of the chromatograms was then undertaken and the content of the main products and by-products as area percentage values determined (see FIG. 11).

Where [6] appears, read: dark toxicity (no illumination), 1 μM.
[7] abbreviates: photodynamic activity, 1 μM, illumination 15 min.
Where [8] appears, read: dark toxicity (no illumination), 0.01 μM.
Where [9] appears, read: photodynamic activity, 0.01 μM, illumination 15 min.
Setting [10] is: dark toxicity, 1 μM, no illumination.
Setting [11] is: dark toxicity, 10 μM, no illumination.
[12] abbreviates: photodynamic activity (light toxicity), 0.01 μM, illumination 15 min.
[13] abbreviates: photodynamic activity (light toxicity), 0.1 μM, illumination 15 min.
The mark [14] stands for this setting: photodynamic activity (light toxicity), 1 μM, illumination 15 min.
Where [15] appears, read: dark toxicity (no illumination), 10 μM.

Take `C[N+](C)(C)CCCOc1ccc(-c2c3nc(cc4ccc([nH]4)c(-c4ccc(OCCC[N+](C)(C)C)cc4)c4nc(cc5ccc2[nH]5)C=C4)C=C3)cc1.[Cl-].[Cl-]` [Compound 10, 5,15-bis-[4-(3-Trimethylammonio-propyloxy)-phenyl]-porphyrin dichloride]: the “Concentration of Compound 10 required to obtain a 3 log reduction in cells (μM)” value in the data set on E. coli ATCC 25922 (E. coli ATCC 25922) is 0.1 μM; in data set [1] (Staphylococcus aureus ATCC BAA-44), 0.005 μM. Also, the Log reduction in the data set on E. coli ATCC 25922 (setting [6]) was <1 (<10^−1); in the data set on E. coli ATCC 25922 (setting [7]), >6 (>10^−6); in data set [1] (setting [8]) it was <1 (<10^−1); in data set [1] (setting [9]), >4 (>10^−4). In addition, the bacteria killed in data set [1] (BAA-44, 0.0025 μM, with light) was 90%. Moreover, the “dark toxicity against BAA-44” value in data set [1] is “negligible”. In addition, the Survival in data set [2] (setting [10]) was 100%; in data set [2] (setting [11]), 91%; in data set [2] (setting [12]) it was 80%; in data set [2] (setting [13]) it was 8%; in data set [2] (setting [14]), 0.5%; in data set [3] (setting [10]), 100%. Also, the Survival in data set [3] (setting [11]) came out at 51%; in data set [3] (setting [12]) it was 62%; in data set [3] (setting [13]) it was 1.0%. Further, the “toxicity to bacterial cells compared to human skin cells” value in data set [4] was “preferentially toxic to bacterial cells compared to human skin cells”. In data set [5], the “chemical stability under stress test” value is on record as “good stability”.

As for `CN(C)CCC[N+](C)(C)CCCOc1ccc(-c2c3nc(cc4ccc([nH]4)c(-c4ccc(OCCC[N+](C)(C)CCCN(C)C)cc4)c4nc(cc5ccc2[nH]5)C=C4)C=C3)cc1.[Cl-].[Cl-]` [Compound 8, 5,15-bis-(4-{3-[(3-Dimethylamino-propyl)-dimethylammonio]-propyloxy}-phenyl)-porphyrin dichloride], the Log reduction with E. coli ATCC 25922 (setting [8]) is <1 (<10^−1); in the data set with E. coli ATCC 25922 (setting [15]), 2 (10^−2); with E. coli ATCC 25922 (setting [9]) it was <1 (<10^−1); in the data set on E. coli ATCC 25922 (photodynamic activity, 10 μM, illumination 15 min), >6 (>10^−6); in data set [1] (setting [6]), <1 (<10^−1); in data set [1] (setting [15]), <1 (<10^−1). In addition, the Log reduction in data set [1] (setting [9]) is 3; in data set [1] (photodynamic activity, 0.1 μM, illumination 15 min), 3 (10^−3); in data set [1] (setting [7]), 6 (10^−6). The “dark toxicity against BAA-44” value in data set [1] is “negligible”. Also, the Survival in data set [2] (setting [10]) was determined as 100%; in data set [2] (setting [11]) it was 68%; in data set [2] (setting [12]), 100%; in data set [2] (setting [13]) it was 12%; in data set [2] (setting [14]), 3%; in data set [3] (setting [11]), 97%. Further, the Survival in data set [3] (setting [12]) was 98%; in data set [3] (setting [13]), 33%; in data set [3] (setting [14]) it was 0.5%. The “toxicity to bacterial cells compared to human skin cells” value in data set [4] is recorded as “preferentially toxic to bacterial cells compared to human skin cells”. Besides, in data set [5], the “chemical stability under stress test” value is “less stable than Compounds 10 and 12”.
